Results published in US11642344B2, “Cholesteryl ester transfer protein (CETP) inhibitor and pharmaceutical compositions comprising said inhibitor for use in the treatment or prevention of cardiovascular diseases” (NewAmsterdam Pharma B.V., priority 2014, dated 2023).
Like-named read-outs stand apart in the source and are kept apart here.

What was measured:
CETP [1] = experiment: Ex vivo serum CETP activity after oral administration to hamsters; set-up: species or system Syrian Golden hamsters; conditions: 3 mg/kg oral, suspension in 0.5% CMC, serum 3 hours after administration
Method: Syrian Golden hamsters were used for the experiment after 1-week acclimatization. After an overnight fast, animals were orally given the compound suspension in 0.5% sodium carboxymethylcellulose in a volume of 10 mL/kg. Under deep anesthesia with ether, blood was collected from the abdominal aorta 3 hours after the administration. For preparation of serum, the collected blood was transferred to a plastic tube containing a clot activator, left still for 15 minutes at room temperature and centrifuged. Serum CETP activities were determined immediately.
Ninety-five μL serum were added to 5 μL of […] sodium phosphate buffered saline (pH 7.0) containing 1.5 mM 5,5′-dithio-bis(2-nitrobenzoic acid) in two 96-well V-bottom plates. One plate was incubated at 4° C. and the other was incubated at 37° C. After 18 hours of incubation, each sample was mixed with 100 μL of reagent for precipitation of apolipoprotein B-containing lipoproteins (phosphotungstate/MgCl2 reagent, Wako pure chemical), left still for 10 minutes at room temperature and centrifuged. Total cholesterol (TC) and free cholesterol (FC) in supernatant were measured using commercial kits (Cholesterol E-test wako, and Free Cholesterol E-test wako; Wako pure chemical). Cholesteryl ester (CE) was calculated by subtracting FC from TC. CETP activity was determined by the following formula: CETP activity=[CETP transfer]*/[CE value in 4° C. incubation sample] *CETP transfer=[CE value in 4° C. incubation sample]−[CE value in 37° C. incubation sample] (c) Results

CETP [2] = target: T1, CETP (Homo sapiens, UniProt P11597); experiment: In vitro CETP assay: 3H-labeled CE transfer from HDL to VLDL/LDL in human plasma; type: biochemical; conditions: 24 h pre-incubation at 37° C.
T1 construct: from tissue; host or cells: plasma of Caucasian male subjects dosed with Compound A or placebo
T1 sequence (P11597 18-493): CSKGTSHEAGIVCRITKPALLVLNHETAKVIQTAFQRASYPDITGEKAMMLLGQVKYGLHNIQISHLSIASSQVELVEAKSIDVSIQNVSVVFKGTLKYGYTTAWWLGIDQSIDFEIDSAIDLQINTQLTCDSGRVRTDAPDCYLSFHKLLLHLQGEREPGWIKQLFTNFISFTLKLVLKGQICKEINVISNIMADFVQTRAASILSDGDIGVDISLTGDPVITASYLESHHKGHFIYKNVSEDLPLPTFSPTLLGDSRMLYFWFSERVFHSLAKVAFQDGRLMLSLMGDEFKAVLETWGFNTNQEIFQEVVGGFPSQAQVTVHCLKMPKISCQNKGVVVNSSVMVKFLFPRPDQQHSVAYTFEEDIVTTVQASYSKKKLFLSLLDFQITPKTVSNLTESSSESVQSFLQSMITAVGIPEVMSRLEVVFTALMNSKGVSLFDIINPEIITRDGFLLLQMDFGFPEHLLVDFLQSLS
Method: Human blood was obtained from healthy male volunteers using 0.1% EDTA as an anticoagulant, and centrifuged at 3,000 rpm for 15 minutes at 4° C. Human plasma was pooled, and then used for the preparation of ^3H-labeled HDL or stored at −80° C. for CETP assay until use. The ^3H-labeled HDL was prepared with human plasma as described by Glenn and Melton (Methods in enzymology. 263; 339-351, 1996). The specific gravity of plasma was measured by a hydrometer, and the density was adjusted to 1.125 g/mL by adding solid KBr. After centrifugation at 100,000 rpm for 4 hours at 12° C. (rotor: 100.4, Optima TLX, Beckman), d>1.125 g/mL fraction was dialyzed against 4 L of Tris-saline-EDTA buffer (TSE; 50 mmol/L Tris, 150 mmol/L NaCl, 2 mmol/L EDTA, pH7.4) for 18 hours at 4° C. [1,2-^3H(N)]-Cholesterol (37 MBq/mL) was added to the dialyzed plasma fraction at the amount of 2 μCi/mL. The tube was tightly sealed under N2 gas stream and incubated at 37° C. for 18 hours with gently stirring to allow esterification of radio-labeled cholesterol by endogenous LCAT. The incubated plasma fraction was adjusted to d=1.21 g/mL with solid KBr, and centrifuged at 100,000 rpm, 12° C. for 5 hours. ^3H-labeled HDL fraction was dialyzed against 2 L of TSE at 4° C. for 18 hours. The radioactivity of ^3H-labeled HDL was counted in a liquid scintillation counter. ^3H-labeled HDL was stored at 4° C. until use.
CETP activity was determined as the rate of ^3H-labeled CE transfer from donor HDL to acceptor VLDL/LDL. Human plasma (94 μL) was pre-incubated with compounds dissolved in DMSO (1 μL) 24 hours at 37° C., and then incubated for 4 hours at 4° C. or 37° C. with 5 μL of ^3H-labeled HDL. One hundred μL of phosphotungstate/MgCl2 reagent (Wako pure chemical) were added to precipitate apoB-containing lipoproteins. After centrifugation at 3,000 rpm for 10 minutes at room temperature, the radioactivity of the supernatant was counted in a liquid scintillation counter. […] The concentration achieving 50% inhibition of CETP activity (IC50) was estimated.

HDL-C, LDL-C = conditions: cited from earlier work
[3] = cited from earlier work; for mineralocorticoid activity: data from phase 2 studies; for off-target effects (in words): clinical trials
[4] = 200 mg once daily, fasted healthy subjects
[5] = 500 mg once daily monotherapy in patients

## CCOC(=O)N1c2ccc(C(F)(F)F)cc2[C@@H](N(Cc2cc(C(F)(F)F)cc(C(F)(F)F)c2)c2ncc(OCc3cccc(C(=O)O)c3)cn2)C[C@H]1CC [compound 2]
CETP [1]
  ex vivo (% inhibition) 3 mg/kg (CMC): 38.4%
CETP [2]
  IC50: 0.23 µM

## CCOC(=O)N1c2ccc(C(F)(F)F)cc2C(N(Cc2cc(C(F)(F)F)cc(C(F)(F)F)c2)c2ncc(OCc3ccc(C(=O)O)cc3)cn2)CC1CC (stereo not drawn) [compound 1]
CETP [1]
  ex vivo (% inhibition) 3 mg/kg (CMC): 57.5%
CETP [2]
  IC50: 0.21 µM

## COc1cc(F)c(C(C)C)cc1-c1ccc(C(F)(F)F)cc1CN1C(=O)O[C@H](c2cc(C(F)(F)F)cc(C(F)(F)F)c2)[C@@H]1C [Anacetrapib, anacetrapib]
HDL-C, LDL-C; 150 mg once daily, patients
  decrease LDL-C: 40%
  increase HDL C: 139%
HDL-C, LDL-C; [4]
  decrease LDL-C: 36%
  increase HDL C: 97%
[3]
  mineralocorticoid activity: without mineralocorticoid activity

## CCOC(=O)N1c2ccc(C(F)(F)F)cc2C(N(Cc2cc(C(F)(F)F)cc(C(F)(F)F)c2)c2ncc(OCC(=O)N(C)CC(=O)O)cn2)CC1CC (stereo not drawn) [compound 4]
CETP [1]
  ex vivo (% inhibition) 3 mg/kg (CMC): 8.6%
CETP [2]
  IC50: 0.79 µM

## CCOC(=O)N1c2ccc(C(F)(F)F)cc2C(N(Cc2cc(C(F)(F)F)cc(C(F)(F)F)c2)c2ncc(S(=O)(=O)CCCC(=O)O)cn2)CC1CC (stereo not drawn) [compound 6]
CETP [1]
  ex vivo (% inhibition) 3 mg/kg (CMC): 13.9%
CETP [2]
  IC50: 0.22 µM

## CCOC(=O)N1c2ccc(C(F)(F)F)cc2C(N(Cc2cc(C(F)(F)F)cc(C(F)(F)F)c2)c2ncc(OCC(=O)NCC(=O)O)cn2)CC1CC (stereo not drawn) [compound 3]
CETP [1]
  ex vivo (% inhibition) 3 mg/kg (CMC): 5.4%
CETP [2]
  IC50: 0.45 µM

## CCOC(=O)N1c2ccc(C(F)(F)F)cc2[C@@H](N(Cc2cc(C(F)(F)F)cc(C(F)(F)F)c2)C(=O)OC)C[C@H]1CC [Torcetrapib, torcetrapib]
HDL-C, LDL-C; dosed at 60 mg, phase 3
  decrease LDL-C: 25%
  increase HDL-C: 72%
[3]
  off-target effects (in words): increased blood pressure, changes in electrolytes
[3]; in combination with atorvastatin, compared with atorvastatin alone
  cardiovascular events and death: unexpected increase in cardiovascular events and death

## Cc1cc(C)c2c(c1)[C@@H](N(Cc1cc(C(F)(F)F)cc(C(F)(F)F)c1)c1nnn(C)n1)CCCN2C[C@H]1CC[C@H](C(=O)O)CC1 [Evacetrapib, evacetrapib]
HDL-C, LDL-C; [5]
  decrease LDL-C: 36%
  increase HDL-C: 129%
[3]
  mineralocorticoid activity: without mineralocorticoid activity

## CCC(CC)CC1(C(=O)Nc2ccccc2SC(=O)C(C)C)CCCCC1 [Dalcetrapib, dalcetrapib]
HDL-C, LDL-C; phase 2b clinical trials
  effects on LDL-C concentrations: minimal effects
  increase HDL-C: 30-40%
[3]
  off-target effects (in words): did not appear to exhibit the off-target effects of torcetrapib

## CCOC(=O)N1c2ccc(C(F)(F)F)cc2C(N(Cc2cc(C(F)(F)F)cc(C(F)(F)F)c2)c2ncc(OCC(=O)N3CCCC3C(=O)O)cn2)CC1CC (stereo not drawn) [compound 5]
CETP [1]
  ex vivo (% inhibition) 3 mg/kg (CMC): 6.2%
CETP [2]
  IC50: 1.7 µM
